From patent US4933104A, “Anthraquinone derivative as a dichroic dye for a liquid-crystal material, liquid-crystal material and an electrooptical device” (priority 1986, dated 1990)
Where “and” joins values, the source holds several entries; their conditions need not be identical. Equal values may be shown once.

Tests used:
Assay type in all cases: physicochemical
[1] = limiting solubility in liquid-crystalline mixtures at 20° C.; details: for Solubility (limiting), known derivatives: Table 6, derivatives of SU 1089084
[2] = λmax of the long-wave absorption band of the dye; details: Table 1 / Examples; several values = several maxima
Experimental: (§1) Table 1 given below lists the values of negative dichroism of the anthraquinone derivative of general formula /1/ for examples 1-30 in a liquid-crystalline mixture ZK-807; Table 2 illustrates physico-chemical characteristics, and Table 3--limiting solubility in liquid-crystalline mixtures (ZK-807, ZLI-1840, 3010, SP-586, ZK-1282) at 20° C.

[3] = negative dichroism S in a liquid-crystalline mixture; details: liquid-crystalline mixture ZK-807
Experimental: as §1

[4] = λmax of the long-wave absorption band of the dye; details: Table 7; two values = two maxima
Experimental: A weighed sample of one or several anthraquinone derivatives of general formula /1/ is dissolved upon heating to 60° C. in a liquid-crystalmatrix and then cooled to 20° C.

SMILES	Solubility (limiting) ([1]; 3010, 20° C.)	Solubility (limiting) ([1]; SP-586, 20° C.)	Solubility (limiting) ([1]; ZK-807, 20° C.)	Solubility (limiting) ([1]; ZK-1282, 20° C.)	Solubility (limiting) ([1]; ZLI-1840, 20° C.)	λmax [2]	negative dichroism S [3]	Solubility (limiting), known derivatives ([1]; ZK-807, 20° C.)	Solubility (limiting), known derivatives ([1]; ZLI-1840, 20° C.)	λmax, known derivatives [4]
CCCCCC1CCC(c2ccc(C(=O)Nc3cc(CCCC)c(O)c4c3C(=O)c3c(NC(=O)c5ccc(C6CCC(CCCCC)CC6)cc5)cc(CCCC)c(OC(=O)CCC)c3C4=O)cc2)CC1 (centres unmarked) [Compound 22]	2.0 mass %	1.2 mass %	1.1 mass %	1.5 mass %	1.4 mass %	545 nm	-0.38	–	–	–
CCCCc1cc(NC(=O)c2ccc(C3CCC(CCCC)CC3)cc2)c2c(c1O)C(=O)c1c(OC(=O)CCC)c(CCCC)cc(NC(=O)c3ccc(C4CCC(CCCC)CC4)cc3)c1C2=O (centres unmarked) [Compound 23]	2.0 mass %	–	1.7 mass %	–	2.6 mass %	542 nm	-0.36	–	–	–
CCCCCC1CCC(c2ccc(C(=O)Nc3cc(CCCC)c(O)c4c3C(=O)c3c(OC(=O)c5ccc(C6CCC(CCCCC)CC6)cc5)c(CCCC)cc(NC(=O)c5ccc(C6CCC(CCCCC)CC6)cc5)c3C4=O)cc2)CC1 (centres unmarked) [Compound 24]	6.0 mass %	–	6.0 mass %	–	5.5 mass %	563 nm and 617 nm	-0.33	–	–	–
CCCCCc1cc(NC(=O)c2ccc(CCCC)cc2)c2c(c1O)C(=O)c1c(OC(=O)c3ccc(CCCC)cc3)c(CCCCC)cc(NC(=O)c3ccc(CCCC)cc3)c1C2=O [Compound 25]	0.9 mass %	–	3.0 mass %	–	1.0 mass %	540 nm	-0.30	–	–	–
CCCCCCc1ccc(C(=O)Nc2cc(CCCCC)c(O)c3c2C(=O)c2c(NC(=O)c4ccc(CCCCCC)cc4)cc(CCCCC)c(OC(=O)c4ccc(CCCCCC)cc4)c2C3=O)cc1 [Compound 26]	1.0 mass %	–	2.9 mass %	0.7 mass %	1.1 mass %	542 nm	-0.31	–	–	–
CCCCC[C@H]1CC[C@H](c2ccc(C(=O)Nc3ccc(O)c4c3C(=O)c3c(NC(=O)c5ccc([C@H]6CC[C@H](CCCCC)CC6)cc5)cc(C)c(O)c3C4=O)cc2)CC1 [Compound 27, 1,8-Bis-4-(trans-4-amylcyclohexyl)benzamido-3-methyl-4,5-dioxyanthraquinone]	1.0 mass %	–	1.0 mass %	1.0 mass %	1.0 mass %	562 nm and 603 nm	-0.33	–	–	–
CCCCCC1CCC(c2ccc(C(=O)Nc3ccc(O)c4c3C(=O)c3c(NC(=O)c5ccc(C6CCC(CCCCC)CC6)cc5)cc(CCCC)c(O)c3C4=O)cc2)CC1 (centres unmarked) [Compound 28]	1.1 mass %	0.8 mass %	0.6 mass %	1.0 mass %	1.0 mass %	564 nm and 605 nm	-0.32	–	–	–
CCCCC[C@H]1CC[C@H](c2ccc(C(=O)Nc3cc(CCCC)c(O)c4c3C(=O)c3c(NC(=O)c5ccc([C@H]6CC[C@H](CCCCC)CC6)cc5)cc(CCCC)c(O)c3C4=O)cc2)CC1 [Compound 29, 1,8-Bis-4-(trans-4-amylcyclohexyl)benzamido-3,6-dibutyl-4,5-dioxyanthraquinone]	1.0 mass %	–	1.0 mass %	1.0 mass %	1.0 mass %	563 nm and 606 nm	-0.32	–	–	–
CCCCc1ccc(C(=O)Nc2ccc(NC(=O)c3ccc(CCCC)cc3)c3c2C(=O)c2ccccc2C3=O)cc1 [No. 3, Table 6, reference compound]	–	–	–	–	–	–	–	2.0 mass %	0.3 mass %	508 nm
CCCCCCc1ccc(C(=O)Nc2ccc(NC(=O)c3ccc(CCCCCC)cc3)c3c2C(=O)c2ccccc2C3=O)cc1 [No. 4, Table 6, reference compound]	–	–	–	–	–	–	–	2.3 mass %	0.6 mass %	512 nm
CCCCCCc1ccc(C(=O)Nc2ccc(OC(=O)c3ccc(CCCCCC)cc3)c3c2C(=O)c2c(NC(=O)c4ccc(CCCCCC)cc4)ccc(OC(=O)c4ccc(CCCCCC)cc4)c2C3=O)cc1 [No. 5, Table 6, reference compound]	–	–	–	–	–	–	–	0.5 mass %	0.1 mass %	468 nm
CCCCc1ccc(C(=O)Nc2ccc(OC(=O)c3ccc(CCCC)cc3)c3c2C(=O)c2c(NC(=O)c4ccc(CCCC)cc4)ccc(OC(=O)c4ccc(CCCC)cc4)c2C3=O)cc1 [No. 6, Table 6, reference compound]	–	–	–	–	–	–	–	0.5 mass %	–	470 nm
CCCCc1ccc(C(=O)Nc2ccc(O)c3c2C(=O)c2c(NC(=O)c4ccc(CCCC)cc4)ccc(O)c2C3=O)cc1 [No. 7, Table 6, reference compound]	–	–	–	–	–	–	–	0.1 mass %	–	560 nm
CCCCc1ccc(C(=O)Nc2ccc(O)c3c2C(=O)c2c(NC(=O)c4ccc(CCCC)cc4)ccc(OC(=O)c4ccc(CCCC)cc4)c2C3=O)cc1 [No. 8, Table 6, reference compound]	–	–	–	–	–	–	–	1.0 mass %	0.3 mass %	535 nm
CCCCCCc1ccc(C(=O)Nc2ccc(O)c3c2C(=O)c2c(NC(=O)c4ccc(CCCCCC)cc4)ccc(O)c2C3=O)cc1 [No. 9, Table 6, reference compound]	–	–	–	–	–	–	–	0.1 mass %	–	562 nm
CCCCCC1CCC(c2ccc(C(=O)Nc3ccc(O)c4c3C(=O)c3c(NC(=O)c5ccc(C6CCC(CCCCC)CC6)cc5)ccc(OC(=O)c5ccc(C6CCC(CCCCC)CC6)cc5)c3C4=O)cc2)CC1 (centres unmarked) [No. 10, Table 6, reference compound]	–	–	–	–	–	–	–	0.2 mass %	0.6 mass %	554 nm
